Measured values from patent publication US4075189A, “Hexapeptides” (Parke, Davis & Company, priority 1976, dated 1978).
Where “and” joins values, the source holds several entries; their conditions need not be identical. Identical values can stand only once. No end group written: not given here.

Test system: LRF (luteinizing hormone releasing factor) induced luteinizing hormone (LH) release
Assay: LRF antagonist activity in vitro, rat anterior pituitary cell cultures (Vale et al.)
Format: cell-based
Settings: LRF alone
Text: Hexapeptides of this invention were screened for LRF antagonist activity in vitro using rat anterior pituitary cell cultures as described by Vale et. al. [Endocrinology, 91, 562 (1972)]. The inhibition of LRF (luteinizing hormone releasing factor) induced luteinizing hormone (LH) release into the culture medium is the endpoint in this in vitro bioassay.

Substance: LRF Control: luteinizing hormone releasing factor, also referred to as luteinizing hormone releasing hormone, LH-RH; stimulus in the bioassay (QHWSYGLRPG; ends and bridges not checked; UniProt P01148 24-33, looked up)
- LH Value (Molar Conc. 2.5×10^-10): 38.98 ng/mL
- LH Value (Molar Conc. 3.5×10^-10): 35.60 ng/mL and 49.99 ng/mL and 41.70 ng/mL and 64.13 ng/mL
- LH Value (Molar Conc. 5×10^-10): 63.61 ng/mL
